Assays:
[1] = tested on: Brevibacterium flavum AJ13325; test: Growth of β-(2-thienyl)-DL-alanine resistant strains in the presence of β-(2-thienyl)-DL-alanine; type: cell-based; settings: 0.25 g/L of β-(2-thienyl)-DL-alanine
Description: Similarly, the term “β-(2-thienyl)-DL-alanine resistance” refers to the property that a bacterium grows faster than the wild type in a medium containing β-(2-thienyl)-DL-alanine. For example, those strains that form colonies on a solid medium containing 0.25 g/L of β-(2-thienyl)-DL-alanine at 30° C. within 4 to 5 days are said to have β-(2-thienyl)-DL-alanine resistance.
To select B-(2-thienyl)-DL-alanine resistant strains from NG treated strains using Brevibacterium flavum AJ13377 as a parent strain, Brevibacterium flavum AJ13377 cells were NG treated and washed before their inoculation on a minimal medium for selection. The minimal medium for selection was a medium that contained 20 g of glucose, 1 g of ammonium sulfate, 1 g of potassium dihydrogen phosphate, 2.5 g of urea, 0.4 g of magnesium sulfate heptahydrate, 0.01 g of iron (II) sulfate heptahydrate, 0.01 g of manganese sulfate tetra- to pentahydrate, 50 μg of biotin, 200 μg of thiamin hydrochloride, 200 μg of nicotinic acid amide, and 250 mg of β-(2-thienyl)-DL-alanine per liter of distilled water. The NG treated mutant was incubated in the above-described medium at 30° C. for 5 to 10 days. The cell culture thus obtained was spread on a bouillon agar medium and incubated at 30° C. for 24 hours for colony formation. β-(2-Thienyl)-DL-alanine resistant strains were obtained from the strains that formed colonies. […]

[2] = tested on: 3-PGDH derived from AJ13377 strain; test: Feedback inhibition of 3-PGDH from AJ13377 by L-serine; type: biochemical, Brevibacterium flavum; settings: crude enzyme solution; compared with wild type strain ATCC 14067; FIG. 1
Description: (§1) The activity of 3-PGDH can be determined, for example, by the measurement of a decrease in coenzyme NADH2 in a reverse reaction (E. Sugimoto and L. I. Pizer, JBC, 243, 2081, 1968) or synthesis of coenzyme NADH2 in a forward reaction (Salach H. J. Method in Enzymology, vol.9, 216-220, 1966) by absorbance at 340 nm.
(§2) Brevibacterium flavum AJ13324, AJ13325 and AJ13327 were each incubated on a bouillon agar medium at 30° C. for 24 hours and a loopful of each microorganism was inoculated in a 500 ml shaking flask containing 50 ml of a fermentation medium having the composition shown in Table 2. As a control, the parent strains Brevibacterium flavum ATCC 14067 and AJ13377 were inoculated as a same manner as described above. The medium for inoculation was adjusted to pH 5.5 with sodium hydroxide and autoclaved at 115° C. for 15 minutes. […]
(§3) The enzyme activity of 3-PGDH was measured by the method of Salach H. J. et al. (Method in Enzymology, vol 9, 216-220 (1966)).
(§4) More specifically, 0.4 ml of 0.015 M NAD, 0.12 ml of 0.25 M EDTA (pH 9, NaOH), 0.1 ml of 0.05 M glutathione (pH 6, KOH), 0.5 ml of 1 M hydrazine (pH 9, acetate), 0.6 ml of 1 M Tris (pH 9, HCl), a suitable concentration of L-serine (0 to 40 mM), and water to make 2.3 ml, warmed to 25° C. in advance, were added. […] After stirring, the absorbance at 340 nm of the reaction mixture was measured for 30 seconds. […]

[3] = tested on: 3-PGDH derived from AJ13324 strain; test: Feedback inhibition of 3-PGDH from AJ13324 by L-serine; type: biochemical, Brevibacterium flavum; settings: crude enzyme solution; FIG. 1
Description: as §1, §2, §3, §4

[4] = tested on: 3-PGDH derived from ATCC14067 strain (wild type); test: Feedback inhibition of wild type 3-PGDH by L-serine; type: biochemical, Brevibacterium flavum; settings: wild type coryneform bacterium 3-PGDH; 10 mM L-serine
Description: as §1, §2, §3, §4

[5] = tested on: 3-PGDH derived from AJ13327 strain; test: Feedback inhibition of 3-PGDH from AJ13327 by L-serine; type: biochemical, Brevibacterium flavum
Description: as §1
Brevibacterium flavum AJ13324, AJ13325 and AJ13327 were each incubated on a bouillon agar medium at 30° C. for 24 hours and a loopful of each microorganism was inoculated in a 500 ml shaking flask containing 50 ml of a fermentation medium having the composition shown in Table 2. As a control, the parent strains Brevibacterium flavum ATCC 14067 and AJ13377 were inoculated as a same manner as described above. The medium for inoculation was adjusted to pH 5.5 with sodium hydroxide and autoclaved at 115° C. for 15 minutes.
After collecting cells from the culture broth of each strain, the cells were washed twice with physiological saline and suspended in 50 mM sodium phosphate buffer (pH 7.0) containing 2 mM dithiothreitol. After ice cooling, the suspension was subjected to a sonicator to fragment the cells and the resulting liquid was ultracentrifuged. The ultracentrifugaton was run at 45,000 rpm for 1 hour to obtain a crude enzyme solution.
as §3
[…] Then, 0.2 ml of the crude enzyme solution was added and the temperature was kept the same for 5 minutes. Thereafter, 0.5 ml of 0.1 M 3-PGA (3-phosphoglycerate disodium salt, pH 7, NaOH) was added. After stirring, the absorbance at 340 nm of the reaction mixture was measured for 30 seconds. The reaction was carried out at 25° C.
For the measurement of activity, Hitachi U-2000A spectrophotometer was used.

[6] = tested on: Brevibacterium flavum AJ13324 and AJ13327; test: Growth of azaserine resistant strains in the presence of azaserine; type: cell-based; settings: 0.25 g/L of azaserine
Description: The term “azaserine resistance” refers to the property that a bacterium grows faster than the wild type in a medium containing azaserine. For example, those strains that form colonies on a solid medium containing 0.25 g/L of azaserine at 30° C. within 4 to 5 days are said to have azaserine resistance.
To select azaserine resistant strains from NG treated strains using Brevibacterium flavum AJ13377 as a parent strain, NG treated Brevibacterium flavum AJ13377 cells after washed were inoculated on a minimal medium for selection. The minimal medium for selection was a medium that contained 20 g of glucose, 1 g of ammonium sulfate, 1 g of potassium dihydrogen phosphate, 2.5 g of urea, 0.4 g of magnesium sulfate heptahydrate, 0.01 g of iron (II) sulfate heptahydrate, 0.01 g of manganese sulfate tetra- to pentahydrate, 50 μg of biotin, 200 μg of thiamin hydrochloride, 200 μg of nicotinic acid amide, and 250 mg of azaserine per liter of distilled water. The NG treated mutant was incubated in the above-described medium at 30° C. for 5 to 10 days. The cell culture thus obtained was spread on a bouillon agar medium and incubated at 30° C. for 24 hours for colony formation. Azaserine resistant strains were obtained from the strains that formed colonies. The mutants thus obtained included many strains that accumulated L-serine in considerable amounts at high yields. […]

NC(Cc1cccs1)C(=O)O (racemic) [β-(2-thienyl)-DL-alanine]
growth in the presence of β-(2-thienyl)-DL-alanine [1]: able to grow

N[C@@H](CO)C(=O)O [L-serine]
L-serine sensitivity of 3-PGDH [2]: relieved of L-serine sensitivity | L-serine sensitivity of 3-PGDH [3]: more relieved of L-serine sensitivity | 3-PGDH activity in the presence of L-serine [4]: almost completely inhibited | 3-PGDH activity retained in the presence of L-serine (relative to absence of L-serine) ([5]; 80 mM L-serine): ~100% | feedback inhibition of 3-PGDH by L-serine ([5]; 80 mM L-serine, FIG. 1): completely desensitized | L-serine sensitivity of 3-PGDH ([5]; crude enzyme solution, FIG. 1): relieved of L-serine sensitivity greatly

[N-]=[N+]=CC(=O)OC[C@H](N)C(=O)O [azaserine]
growth in the presence of azaserine [6]: able to grow

Source: patent US20030008358A1, “Method of producing L-serine by fermentation” (AJINOMOTO CO. INC, priority 1998, published 2003)
